Measurements published in patent US8017588B2, “Clarithromycin or salt thereof for use in the treatment or prevention of pulmonary disease induced by destruction of pulmonary alveoli” (Taisho Pharmaceutical Co., Ltd, priority 2005, dated 2011).

Tests used:
[1] = tested on: model mice with tobacco smoke-induced pulmonary emphysema; experiment: Pulmonary compliance in model mice with tobacco smoke-induced pulmonary emphysema; format: in vivo, C57black/6 female mice; settings: after six months' exposure; FIG. 2
Description: (§1) The model mice with tobacco smoke-induced pulmonary emphysema mimicking human pulmonary emphysema were constructed according to the method as described in Hautamaki, R. D. et al., Science 1997, 277:2002-2004 or Shapiro, S. D. et al., Am. J. Pathol (2003) 163:2329-2335. Specifically, C57black/6 female mice of 12-weeks old were exposed to tobacco smoke at two cigarettes per day, 6 days per week for 6 months. Administration of clarithromycin was carried out orally at the rate of 25, 50 or 100 […] twice daily (morning and evening) during the tobacco smoke exposure period. The plasma AUC0-∞ of clarithromycin obtained when 50 mg/kg was singly administered to the mice was 2.677 μg·hr/ml while the plasma AUC0-∞ of clarithromycin obtained when 200 mg of clarithromycin was singly administered to a normal human subject was 8.98 μg·hr/ml. The former concentration was substantially lower than the latter one and was an adequate concentration to be used clinically. It has been reported that as pulmonary emphysema progresses, pulmonary functions deteriorate. It has also been known that the pulmonary compliance, which is an index of pulmonary functions, increases in model mice with tobacco smoke-induced pulmonary emphysema. Thus, the pulmonary compliance was measured in the model mice with tobacco smoke-induced pulmonary emphysema after six months' exposure.

[2] = Plasma AUC after single administration to mice; format: in vivo; settings: C57black/6, mouse, oral, 50 mg/kg singly administered, read-out: plasma AUC0-∞
Description: (§2) Administration of clarithromycin was carried out orally at the rate of 25, 50 or 100 […] twice daily (morning and evening) during the tobacco smoke exposure period. The plasma AUC0-∞ of clarithromycin obtained when 50 mg/kg was singly administered to the mice was 2.677 μg·hr/ml while the plasma AUC0-∞ of clarithromycin obtained when 200 mg of clarithromycin was singly administered to a normal human subject was 8.98 μg·hr/ml. The former concentration was substantially lower than the latter one and was an adequate concentration to be used clinically.

[3] = tested on: macrophages and neutrophiles in bronchoalveolar lavage fluids; experiment: Cell counts of inflammatory cells in bronchoalveolar lavage fluids of model mice with tobacco smoke-induced pulmonary emphysema; format: in vivo, C57black/6 female mice; settings: after six months' exposure, 25, 50 or 100 mg/kg orally twice daily
Description: as §1, with “The cell counts of inflammatory cells (macrophages and neutrophiles) in” for “It has been reported that as pulmonary emphysema progresses, pulmonary functions deteriorate. It has also been known that”, “bronchoalveolar lavage fluids after six months' exposure were measured to provide” for “pulmonary compliance, which is”, “of” for “of pulmonary functions, increases in model mice with tobacco smoke-induced pulmonary emphysema. Thus,”, “inflammatory condition” for “pulmonary compliance was measured”, “emphysema. […]” for “emphysema after six months' exposure.”

[4] = Plasma AUC after single administration to a normal human subject; format: in vivo; settings: 200 mg singly administered, read-out: plasma AUC0-∞
Description: as §2

AUC(0-inf) [2]: 2680 ng·h/mL
AUC(0-inf) [4]: 8980 ng·h/mL
Compound: CC[C@H]1OC(=O)[C@H](C)[C@@H](O[C@H]2C[C@@](C)(OC)[C@@H](O)[C@H](C)O2)[C@H](C)[C@@H](O[C@@H]2O[C@H](C)C[C@H](N(C)C)[C@H]2O)[C@](C)(OC)C[C@@H](C)C(=O)[C@H](C)[C@@H](O)[C@]1(C)O [clarithromycin]
pulmonary compliance [1]: the pulmonary compliance recovered
cell count of macrophages in bronchoalveolar lavage fluid ([3]; FIG. 1A): reduced the cell counts of macrophages and neutrophiles in a dose-dependant manner
cell count of neutrophiles in bronchoalveolar lavage fluid ([3]; FIG. 1B): reduced the cell counts of macrophages and neutrophiles in a dose-dependant manner
